Measurements published in patent US6248752A, “Azabicyclooctane compositions and methods for enhancing chemotherapy” (priority 1999, dated 2001).
Where two headings read alike, the source gives them in different places.

Columns and labels:
[1] = Intrinsic cytotoxicity of the compounds toward drug-sensitive MCF-7 cells (sulforhodamine B binding assay); details: human, Cytotoxicity (% killed at 10 μg/ml)
MRP = molecular target: T1, MRP (Homo sapiens, UniProt P33527); assay: Reversal of MRP-mediated MDR: potentiation of vincristine cytotoxicity toward HL-60/ADR cells; format: cell-based
T1 construct: Human promyelocytic leukemia HL-60/ADR cells, which express MRP; endogenous in cells; host or cells: HL-60/ADR human promyelocytic leukemia cells
T1 sequence (P33527 whole entry): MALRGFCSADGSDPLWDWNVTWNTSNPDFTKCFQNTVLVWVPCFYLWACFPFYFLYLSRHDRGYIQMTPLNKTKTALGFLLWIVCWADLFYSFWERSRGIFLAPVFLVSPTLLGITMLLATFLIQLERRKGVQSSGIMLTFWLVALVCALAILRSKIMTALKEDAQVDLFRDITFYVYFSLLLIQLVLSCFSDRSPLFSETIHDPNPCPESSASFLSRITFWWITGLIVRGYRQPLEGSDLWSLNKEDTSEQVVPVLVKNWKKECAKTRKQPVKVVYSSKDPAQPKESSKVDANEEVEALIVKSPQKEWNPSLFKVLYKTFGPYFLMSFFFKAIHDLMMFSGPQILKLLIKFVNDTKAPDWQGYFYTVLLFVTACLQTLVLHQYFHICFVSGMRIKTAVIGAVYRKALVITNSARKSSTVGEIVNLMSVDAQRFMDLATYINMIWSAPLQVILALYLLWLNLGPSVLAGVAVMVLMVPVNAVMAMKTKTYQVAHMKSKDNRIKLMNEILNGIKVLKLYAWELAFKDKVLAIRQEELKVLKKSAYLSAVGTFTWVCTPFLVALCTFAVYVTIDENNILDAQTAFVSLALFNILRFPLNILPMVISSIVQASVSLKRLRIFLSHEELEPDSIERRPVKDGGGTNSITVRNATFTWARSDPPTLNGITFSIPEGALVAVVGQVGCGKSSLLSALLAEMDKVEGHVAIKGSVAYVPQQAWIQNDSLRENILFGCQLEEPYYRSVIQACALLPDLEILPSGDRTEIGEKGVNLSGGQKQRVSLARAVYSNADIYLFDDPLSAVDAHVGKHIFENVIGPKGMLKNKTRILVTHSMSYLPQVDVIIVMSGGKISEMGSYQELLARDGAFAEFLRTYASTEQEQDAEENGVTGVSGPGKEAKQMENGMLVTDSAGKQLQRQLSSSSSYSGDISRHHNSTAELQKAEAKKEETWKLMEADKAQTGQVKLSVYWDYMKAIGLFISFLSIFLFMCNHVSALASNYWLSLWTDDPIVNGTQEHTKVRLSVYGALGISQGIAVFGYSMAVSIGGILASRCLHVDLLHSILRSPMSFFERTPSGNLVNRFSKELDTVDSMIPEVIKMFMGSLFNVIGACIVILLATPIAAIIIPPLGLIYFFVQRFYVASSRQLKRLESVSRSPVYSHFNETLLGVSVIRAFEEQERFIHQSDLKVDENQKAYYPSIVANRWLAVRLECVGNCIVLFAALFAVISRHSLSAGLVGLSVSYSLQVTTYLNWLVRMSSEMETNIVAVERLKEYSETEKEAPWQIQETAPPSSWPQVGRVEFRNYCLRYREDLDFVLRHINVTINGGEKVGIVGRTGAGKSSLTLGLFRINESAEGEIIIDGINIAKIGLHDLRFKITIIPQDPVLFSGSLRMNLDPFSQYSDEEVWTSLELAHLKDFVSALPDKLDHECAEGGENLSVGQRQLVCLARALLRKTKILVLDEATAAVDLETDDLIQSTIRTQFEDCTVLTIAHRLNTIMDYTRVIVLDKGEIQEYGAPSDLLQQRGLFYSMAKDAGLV

[2] = tested on: MCF-7 human breast carcinoma cells; details: mcf-7 cells, 48 h
in vitro = details: human, mcf-7 cells, Cytotoxicity (% killed at 10 μg/ml)
Pgp = Pgp (Homo sapiens, UniProt P08183)
Sequence of Pgp (P08183 whole entry): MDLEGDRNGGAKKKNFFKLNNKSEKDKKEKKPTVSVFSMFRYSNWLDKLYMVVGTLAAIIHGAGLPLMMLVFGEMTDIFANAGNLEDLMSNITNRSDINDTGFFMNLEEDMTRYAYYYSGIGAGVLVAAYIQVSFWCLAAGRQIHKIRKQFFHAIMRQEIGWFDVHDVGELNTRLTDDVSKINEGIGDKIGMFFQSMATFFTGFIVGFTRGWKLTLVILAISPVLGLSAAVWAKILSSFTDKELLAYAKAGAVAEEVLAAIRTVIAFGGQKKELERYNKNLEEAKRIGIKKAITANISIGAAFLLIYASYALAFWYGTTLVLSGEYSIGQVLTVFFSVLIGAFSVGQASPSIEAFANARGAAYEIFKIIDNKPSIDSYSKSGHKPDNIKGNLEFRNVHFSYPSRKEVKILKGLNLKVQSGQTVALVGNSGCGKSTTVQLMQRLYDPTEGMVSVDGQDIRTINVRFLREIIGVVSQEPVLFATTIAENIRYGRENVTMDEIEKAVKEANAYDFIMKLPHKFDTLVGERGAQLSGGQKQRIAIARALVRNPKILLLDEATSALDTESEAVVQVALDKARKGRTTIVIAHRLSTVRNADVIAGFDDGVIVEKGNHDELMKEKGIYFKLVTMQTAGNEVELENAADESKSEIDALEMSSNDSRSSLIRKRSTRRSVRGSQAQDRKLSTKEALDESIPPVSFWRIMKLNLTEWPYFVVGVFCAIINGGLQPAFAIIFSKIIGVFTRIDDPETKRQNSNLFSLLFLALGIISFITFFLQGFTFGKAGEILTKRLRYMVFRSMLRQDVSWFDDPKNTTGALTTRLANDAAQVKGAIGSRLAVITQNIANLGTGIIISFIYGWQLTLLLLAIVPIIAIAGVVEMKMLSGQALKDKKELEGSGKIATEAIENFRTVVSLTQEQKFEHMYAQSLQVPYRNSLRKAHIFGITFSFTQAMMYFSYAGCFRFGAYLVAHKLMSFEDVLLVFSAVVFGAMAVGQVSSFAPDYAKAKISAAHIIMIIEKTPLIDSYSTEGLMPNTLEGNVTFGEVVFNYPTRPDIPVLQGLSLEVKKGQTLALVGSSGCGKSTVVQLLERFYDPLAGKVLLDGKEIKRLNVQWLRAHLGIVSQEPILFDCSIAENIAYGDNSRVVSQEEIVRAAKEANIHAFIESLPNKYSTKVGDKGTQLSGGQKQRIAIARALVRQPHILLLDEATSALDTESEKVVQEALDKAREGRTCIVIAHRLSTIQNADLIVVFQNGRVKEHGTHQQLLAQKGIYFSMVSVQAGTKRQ

[3] = chemosensitizing score on a scale of 0-5 (best activity=5; equal or superior to verapamil = 4, 4.5 or 5), HL-60/ADR cells, 2 nM vincristine, 48 h

Which cytotoxicity at 48 h [1] does the source give for COc1cc(C2(O)CC3CCC2N(Cc2ccccc2)C3)cc(OC)c1OC (stereo not drawn) [Compound I-2, 2-benzyl-cis-6-hydroxy-trans-6-(3,4,5-trimethoxyphenyl)-2-azabicyclco[2.2.2]octane] here?
Its cytotoxicity at 48 h is 39%.

And the MRP antagonism (MRP; [3])?
The MRP antagonism was 3.

Which cytotoxicity at 48 h [1] does the source give for COc1cc(C2CC3CCC2N(Cc2ccccc2)C3)cc(OC)c1OC (stereo not shown) [Compound I-3, 2-benzyl-6-(3,4,5-trimethoxyphenyl)-2-azabicyclo[2.2.2]octane] here?
Its cytotoxicity at 48 h is 22%.

And the MRP antagonism (MRP; [3])?
The MRP antagonism was 4.

Which “Cytotoxicity (% killed at 10 μg/ml)” value [2] does the source give for COc1cc(C2CC3CCC2NC3)cc(OC)c1OC (stereo not drawn) [Compound I-4, cis-6-(3,4,5-trimethoxyphenyl)-2-azabicyclo[2.2.2]octane] here?
Its value is 12%.

What about the MRP antagonism (MRP; [3]) of the same compound?
Its MRP antagonism is 2.

What does the source list for COc1cc(C2CC3CCC2NC3)cc(OC)c1OC (stereo not drawn) [Compound I-5, trans-6-(3,4,5-trimethoxyphenyl)-2-azabicyclo[2.2.2]octane]?
Cytotoxicity (% killed at 10 μg/ml) [2]: 0%; MRP antagonism (MRP; [3]): 4

Which results are given for Oc1ccc(C2(O)CC3CCC2N(Cc2ccccc2)C3)cc1O (stereo not drawn) [Compound I-6, 2-benzyl-cis-6-hydroxy-trans-6-(3,4-dihydroxyphenyl)-2-azabicyclo[2.2. 2]octane]?
cytotoxicity at 48 h [1]: 21%; MRP antagonism (MRP; [3]): 1.5

For CCN1CC2CCC1C(Nc1ccccc1)C2 (stereo not shown) [Compound I-7, 2-ethyl-6-anilino-2-azabicyclo[2.2.2]octane], which cytotoxicity at 48 h (in vitro) is on record?
The cytotoxicity at 48 h was 26%.

And the MRP antagonism (MRP; [3])?
Its MRP antagonism is 1.

Which cytotoxicity at 48 h (in vitro) does the source give for OC1CC2CCC1N(Cc1ccccc1)C2 (stereo not drawn) [Compound I-9, 2-benzyl-6-trans-hydroxy-2-azabicyclo[2.2.2]octane] here?
The cytotoxicity at 48 h was 0%.

And the MRP antagonism (MRP; [3])?
Its MRP antagonism is 0.

For OC1(c2ccc(OCc3ccccc3)c(OCc3ccccc3)c2)CC2CCC1N(Cc1ccccc1)C2 (stereo not shown) [Compound I-10, 2-benzyl-6-(3,4-dibenzyloxyphenyl)-6-hydroxy-2-azabicyclo[2.2.2]octane], which cytotoxicity at 48 h [1] is on record?
Its cytotoxicity at 48 h is 0%.

And the MRP antagonism (MRP; [3])?
The MRP antagonism was 0.

With CN1CC2CCC1C(=O)C2=C(c1ccccc1)c1ccccc1 (stereo not shown) [Compound I-11, 5-diphenylmethylidene-2-methyl-2-azabicyclo[2.2.2]octan-6-one] as the compound, how does the cytotoxicity at 48 h [1] read?
Its cytotoxicity at 48 h is 8%.

Which MRP antagonism (MRP) does the source give for NNC(=O)OC1CC2CCC(C1)N2C(=O)Oc1ccc(Cl)cc1 (stereo not shown) [II-1, 3-hydrazinocarbonyloxy-8-(4-chlorophenoxycarbonyl)-8-azabicyclo[3.2. 1]octane] here?
The MRP antagonism was 2.

And the Pgp antagonism (Pgp)?
Its Pgp antagonism is 3.
